Format in all cases: cell-based
Assay [1] relates to human colorectal adenocarcinoma cells (DLD-1). Briefly: MTT proliferation assay, DLD-1 (Examples 1-2). Particulars: Example 2, DLD-1, sample 200 μg/mL, 24 hours incubation; for inhibition at 200 µg/mL: Homo sapiens. As for the experimental part: Test samples shown below in Table 2 were assessed for their ability to modulate the viability and proliferation of human colorectal adenocarcinoma cells (DLD-1) as assessed by the MTT assay. A positive control, 5-fluorouracil (5-FU) was included in addition to an unsupplemented cell control (negative control) in the study. The test samples were obtained by fractionation of propolis tincture.
Test samples shown below in Table 2 were assessed for their ability to modulate the viability and proliferation of human colorectal adenocarcinoma cells (DLD-1) as assessed by the MTT assay. A positive control, 5-fluorouracil (5-FU) was included in addition to an unsupplemented cell control (negative control) in the study.
Human colorectal adenocarcinoma epithelial cell lines were revived from cryostorage and cultured in the presence of the test and reference samples. The culture conditions for the cells were those described by the supplier of the cells (ATCC). An MTT assay was then performed on the cultures to determine the effect of the samples on the cell proliferation.
Working solutions were prepared by dissolving the test fractions in 15% ethanol (ETOH)/HBSS to a concentration of 2 mg/mL solids.
• 1. Human colorectal adenocarcinoma cells (ATCC CCI-221, DLD-1). • 2. Penicillin-streptomycin solution: 10000 units/mL penicillin, 10 mg/mL streptomycin in 0.9% NaCl (Sigma Cat #P-0781). Stored at −20° C. • 3. DMEM culture medium (Invitrogen Cat #12100-046) Stored at −20° C. • 4. Trypsin-EDTA solution: 0.25% Trypsin/EDTA, Invitrogen Cat#15400054 (×10 in stock). • 5. Phosphate buffered saline (PBS) (Prepared by TBL). • 6. Hanks Balanced Salt Solution (HBSS). (GIBCO Cat No. 14185-052). Stored at 4° C. • 7. Foetal Bovine Serum (GIBCO Cat #10091-148). Stored at −20° C. • 8. MTT Reagent: 100 mg/vial, (SIGMA Cat. No. M-2128) dissolved in PBS at 10 mg/mL and stored at −20° C. 5 mg/mL MTT solution were prepared in PBS and stored at 4° C. as working solution. • 9. MTT lysis buffer: 10% sodium dodecyl sulphate (SDS)/45% Dimethyl Formamide (20 g SDS was dissolved in 100 mL of double-distilled water (DDW), and 90 mL of Dimethyl Formamide added to the SDS solution). The pH was adjusted to 4.7 by glacial acetic acid, and DDW added up to a final volume of 200 mL. • 10. 5-Fluorouracil (5-FU), (Sigma Cat. No. F-6627). Two working solutions were prepared at 150 ng/mL and 75 ng/mL, dissolved in 15% Ethanol/HBSS. Final concentrations were 7.50 ng/mL and 3.75 ng/mL.
The medium for the propagation of the colorectal adenocarcinoma (DLD-1) cells was DMEM, supplemented with penicillin-streptomycin solution (10 mL per litre). FBS was added just before use to give 10% w/v.
• 1. The human colorectal adenocarcinoma cells (DLD-1) obtained from the American Type Culture Collection USA were revived from cryostorage. • 2. Following initial propagation using the media described above (see Medium Preparation), the culture was subcultured using the trypsin-EDTA as follows. The media was removed and 5 mL of the trypsin-EDTA solution added and incubated at 37° C. for 5 min or until all the cells had detached. The trypsin was neutralised by adding an equal volume of DMEM medium and the culture centrifuged at 300 g (1200 rpm) for 5 min at 4° C. • 3. The supernatant was decanted and the cell pellets resuspended in medium DMEM, FBS (10%), penicillin (100 units/mL), streptomycin (100 μg/mL). The cells were cultured at 37° C. in 5% CO2/95% air. • 4. After reaching confluence, the cells were detached using trypsin-EDTA and centrifuged as described in 2 above. • 5. The supernatants were discarded and the cells resuspended in DMEM and supplements as described in 3 above at 1.0×10^4 cells per mL. • 6. Into each well of three 96 well plates, 180 μl of the cells (1,800 cells/well) or medium was added. The plates were incubated at 5% CO2/95% air at 37° C. for 48 h which was sufficient to allow the cells to adhere. • 7. To each well, 20 μl of each, of the test samples or positive control was added. […]
(In general: Tetrazolium dyes change colour on reduction, which living cells bring about.)

Assay [2] has as its system human oesophageal squamous cell carcinoma cell line (KYSE-30). Briefly: MTT anti-proliferative assay, KYSE-30 (Examples 3-13). Conditions: Examples 3-12, 200 μg/ml, 48 hours; for inhibition at 200 µg/mL: Homo sapiens, KYSE-30, 48 h. As for the experimental part: (§1) 5-phenylpenta-2,4-dienoic acid was assessed for its ability to modulate the viability and proliferation of human colorectal adenocarcinoma cells (DLD-1); human colon cancer cell line (HCT-116); human gastric carcinoma cell line (NCI-N87); and human oesophageal squamous cell carcinoma cell line (KYSE-30) as assessed by the MTT assay. The positive control, 5-fluorouracil (5-FU) was included at three concentrations; in addition to an unsupplemented cell control as a negative control in the study. The 5-phenylpenta-2,4-dienoic acid was a genuine standard with chemical structure confirmed by NMR and MS.
(§2) The four human gastrointestinal carcinoma cell lines were revived from cryostorage and cultured in the presence of the test and reference samples. An MTT assay was then performed on the cultures to determine the effect of the samples on the cell viability and proliferation.
(§3) The test sample 5-phenylpenta-2,4-dienoic acid, and all other test samples in Examples 4-12 (except tectochrysln) were Initially dissolved in pure ethanol to a concentration of around 13.35 mg/ml. Tectochrysin was initially dissolved in triethylene glycol mono-methyl ether to the same concentration. Working solutions were then prepared from the stock solutions by dilution to 15% ethanol/Hanks Balanced Salt Solution (ETOH)/HBSS to a concentration of 2 mg/mL solids. In the assay the final concentration of the samples was 200 μg/ml with a final EtOH concentration of 1.5%. Final concentrations of test compounds and propolis prepared as above are as noted in Example 3.
(§4) • 1. Human colorectal adenocarcinoma cells (ATCC CCI-221, DLD-1)(ATCC, Bethesda, Md., USA) • 2. Human gastric carcinoma cells (ATCC CRL-5822, NCI-N87)(ATCC, Bethesda, Md., USA) • 3. Human oesophageal squamous cell carcinoma (ECACC, KYSE-30)(Sigma Aldrich, Auckland, NZ) • 4. Human colon carcinoma cells (ECACC HCT-116)(Sigma Aldrich, Auckland, NZ) • 5. Penicillin-streptomycin solution: 10000 units/ml penicillin, 10 mg/ml streptomycin in 0.9% NaCl (Sigma Cat #P-0781). Stored at −20° C. • 6. For DLD-1 cells: DMEM culture medium (Invitrogen Cat #12100-046). Stored at 4° C. • 7. For NCI-N87 cells: RPMI-1640 medium modified to contain 2 mM L-glutamine, 10 mM HEPES, 1 mM sodium pyruvate, 4500 mg/L glucose, and 1500 mg/L sodium bicarbonate (Sigma R6504). Stored at 4° C. • 8. For KYSE-410 cells: RPMI-1640 medium modified to contain 2 mM L-glutamine (Sigma R6504). Stored at 4° C. • 9. For HCT-116 cells: McCoy's 5A medium modified to contain 2 mM L-glutamine (Sigma M48792). Stored at 4° C. • 10. Trypsin-EDTA solution: 0.25% Trypsin/EDTA, Invitrogen Cat#15400054 (×10 in stock). • 11. Phosphate buffered saline (PBS) (Prepared by TBL). • 12. Hanks Balanced Salt Solution (HBSS). (GIBCO Cat No. 14185-052). Stored at 4° C. • 13. Foetal Bovine Serum (GIBCO Cat #10091-148). Stored at −20° C. • 14. MTT Reagent: 100 mg/vial, (SIGMA Cat. No. M-2128) dissolved in PBS at 10 mg/ml and stored at −20° C. 5 mg/ml MTT solution will be prepared in PBS and stored at 4° C. as working solution. • 15. MTT lysis buffer: 10% sodium dodecyl sulphate (SDS)/45% Dimethyl Formamide (20 g SDS will be dissolved in 100 ml of double-distilled water (DDW), and 90 ml of Dimethyl Formamide will be added to the SDS solution). The pH will be adjusted to 4.7 by glacial acetic acid, and DDW added up to a final volume of 200 ml. • 16. 5-Fluorouracil (5-FU), (Sigma Cat. No. F-6627). Three working solutions will be prepared at 19.5 μg/ml. 6.5 μg/ml and 1.95 μg/ml dissolved in 15% Ethanol/HBSS. Final concentrations will be 1.95 μg/ml (15 μM), 0.65 μg/ml (5 μM) and 0.195 μg/ml (1.5 μM).
(§5) The medium for the propagation of the each of the cells lines is given above. Each medium was prepared following the ATCC/ECACC instructions and supplemented with penicillin-streptomycin solution (10 ml per litre). FBS (at 10%) was added just before use.
• 1. […]

Assay [3] has as its system human gastric carcinoma cell line (NCI-N87). Nature of the assay: MTT anti-proliferative assay, NCI-N87 (Examples 3-12). Particulars: 200 μg/ml; for % stim. / Mean OD (570 nm) / % inhibition: 48 hours; for inhibition at 200 µg/mL: Homo sapiens, NCI-N87, 48 h. As for the experimental part: as §1, §2, §3, §4, §5
• 1. […]

The test system of assay [4] is human colon cancer cell line (HCT-116). Briefly: MTT anti-proliferative assay, HCT-116 (Examples 3-12). Particulars: 200 μg/ml; for % inhibition / % stim. / Mean OD (570 nm): 48 hours; for inhibition at 200 µg/mL: Homo sapiens, HCT-116, 48 h. The procedure:
as §1, §2, §3, §4, §5
• 1. […]

Assay [5] relates to human colorectal adenocarcinoma cells (DLD-1). Nature of the assay: MTT anti-proliferative assay, DLD-1 (Examples 3-12). Particulars: 200 μg/ml; for % inhibition / % stim. / Mean OD (570 nm): 48 hours; for inhibition at 200 µg/mL: Homo sapiens, DLD-1, 48 h. As for the experimental part: as §1, §2, §3, §4, §5
• 1. […]

Where [6] appears, read: listed as Pinobanksin 3-O-acetate.

`O=c1cc(-c2ccccc2)oc2cc(O)cc(O)c12` [Chrysin]: the inhibition (commonly the percentage by which the read-out fell short of the control) at 200 µg/mL in assay [1] is 61.9%.
Still for that read-out and setting: for `O=c1c(O)c(-c2ccccc2)oc2cc(O)cc(O)c12` [Galangin] the value was 56.5%.
As for `COc1cc(O)c(C(=O)/C=C/c2ccccc2)c(O)c1` [pinostrobin chalcone], the figures for the “% inhibition” value in assay [2], in assay [4] and in assay [5] were 45.0%, 51.2% and 83.3%, respectively. Moreover, the “% stim.” value in assay [2] came out at 0%; in assay [3], 5.5%; in assay [4], 0%; in assay [5], 0%. Besides, the “Mean OD (570 nm)” value in assay [2] turned out to be 0.3312; in assay [3] it was 0.4659; in assay [4], 0.2482; in assay [5] it was 0.069.
For `O=C(O)C=CC=Cc1ccccc1` [5-phenylpenta-2,4-dienoic acid], the % inhibition (in general, the percentage by which the read-out fell short of the control) in assay [2] is on record as 37.55%; in assay [4], 36.43%. For the same compound, the “% stim.” value in assay [2], in assay [3], in assay [4] and in assay [5] was 0% each time. In addition, the “Mean OD (570 nm)” value in assay [2] was found to be 0.3758; in assay [3], 0.2537; in assay [4], 0.3232; in assay [5] it was 0.2329. Moreover, the inhibition at 200 µg/mL was determined as 37.6% in assay [2], 42.6% in assay [3], 36.4% in assay [4] and 43.5% in assay [5].
Regarding `CC(=O)O[C@H]1C(=O)c2c(O)cc(O)cc2O[C@@H]1c1ccccc1` [pinobanksin 3-O-acetate, pinobanksin-3-acetate], the “% inhibition” value in assay [2] amounted to 68.01%; in assay [2] (setting [6]), 68.0%; in assay [3], 48.22%; in assay [3] (setting [6]), 48.2%; in assay [4] it was 90.61%; in assay [4] (setting [6]), 90.6%. Further, the “% inhibition” value in assay [5] (setting [6]) is on record as 75.4%. The “% stim.” value in assay [2], in assay [3], in assay [4] and in assay [5] was 0% in each case. For the same compound, the entries for the “Mean OD (570 nm)” value in assay [3] and in assay [4] were 0.2287 and 0.0477, respectively.
Regarding `O=C(O)/C=C/c1ccc(O)c(O)c1` [Caffeic acid], in assay [1], the “Mean OD (570 nm)” value is reported as 0.0113 and the inhibition at 200 µg/mL turned out to be 96.5%.
In the case of `COc1cc(O)c2c(c1)OC(c1ccccc1)CC2=O` (stereo not shown) [Pinocembrin 7-methyl ether], in assay [1], the “% inhibition” value is 2.71% and the “Mean OD (570 nm)” value was determined as 0.3151. In assay [1] (listed as #38 Pinocembrin 7-methyl ether), the “% inhibition” value is recorded as 2.7%.
Take `COc1ccc(/C=C/C(=O)OCc2ccccc2)cc1O` [benzyl isoferulate]: in assay [2], the “% inhibition” value is on record as 95.82%, the “% stim.” value is recorded as 0%, the “Mean OD (570 nm)” value was determined as 0.0251 and testing at 200 µg/mL gave an inhibition of 95.8%. Further, in assay [3], the “% inhibition” value is given as 79.95%, the “% stim.” value is reported as 0%, the “Mean OD (570 nm)” value came to 0.0885 and testing at 200 µg/mL gave an inhibition of 80%. Moreover, in assay [4], the “% inhibition” value stood at 94.81%, the “% stim.” value turned out to be 0%, the “Mean OD (570 nm)” value is recorded as 0.0264 and the inhibition at 200 µg/mL amounted to 94.8%. For the same compound, in assay [5], the “% inhibition” value is 90.81%, the “% stim.” value was 0%, the “Mean OD (570 nm)” value is reported as 0.0379 and the inhibition at 200 µg/mL is 90.8%.

These data come from patent US20160030364A1, “Therapeutic Compositions and Uses Thereof” (MANUKA HEALTH NEW ZEALAND LIMITED, priority 2013, published 2016).
